Measured values as given in ChEMBL document CHEMBL4373641, “Synthesis and direct comparison of the anticancer activities of phomopsolides D and E and two 7-oxa-/7-aza-analogues” (Medchemcomm, 2019).

Columns and labels:
Type in all cases: functional, cell-based
SNB-19 = test: Antiproliferative activity against human SNB19 cells assessed as reduction in cell viability after 48 hrs by SRB assay; conditions: SNB-19, 48 h
OVCAR-4 = test: Antiproliferative activity against human OVCAR4 cells assessed as reduction in cell viability after 48 hrs by SRB assay; conditions: OVCAR-4, 48 h
HT-29 = test: Antiproliferative activity against human HT-29 cells assessed as reduction in cell viability after 48 hrs by SRB assay; conditions: HT-29, 48 h
SK-OV-3 = test: Antiproliferative activity against human SKOV3 cells assessed as reduction in cell viability after 48 hrs by SRB assay; conditions: SK-OV-3, 48 h
BT-549 = test: Antiproliferative activity against human BT549 cells assessed as reduction in cell viability after 48 hrs by SRB assay; conditions: BT-549, 48 h
U-251 = test: Antiproliferative activity against human U251 cells assessed as reduction in cell viability after 48 hrs by SRB assay; conditions: U-251, 48 h
CCRF-CEM = test: Antiproliferative activity against human CCRF-CEM cells assessed as reduction in cell viability after 48 hrs by SRB assay
T47D = test: Antiproliferative activity against human T47D cells assessed as reduction in cell viability after 48 hrs by SRB assay
SF-268 = test: Antiproliferative activity against human SF268 cells assessed as reduction in cell viability after 48 hrs by SRB assay; conditions: SF-268, 48 h
OVCAR-8 = test: Antiproliferative activity against human OVCAR8 cells assessed as reduction in cell viability after 48 hrs by SRB assay; conditions: OVCAR-8, 48 h
SW-620 = test: Antiproliferative activity against human SW620 cells assessed as reduction in cell viability after 48 hrs by SRB assay; conditions: SW-620, 48 h
SN12C = test: Antiproliferative activity against human SN12C cells assessed as reduction in cell viability after 48 hrs by SRB assay
K562 = test: Antiproliferative activity against human K562 cells assessed as reduction in cell viability after 48 hrs by SRB assay; conditions: K562, 48 h
HCT-116 = test: Antiproliferative activity against human HCT116 cells assessed as reduction in cell viability after 48 hrs by SRB assay; conditions: HCT-116, 48 h
TK-10 = test: Antiproliferative activity against human TK10 cells assessed as reduction in cell viability after 48 hrs by SRB assay; conditions: TK-10, 48 h
PC-3 = test: Antiproliferative activity against human PC3 cells assessed as reduction in cell viability after 48 hrs by SRB assay; conditions: PC-3, 48 h
786-0 = test: Antiproliferative activity against human 786-0 cells assessed as reduction in cell viability after 48 hrs by SRB assay; conditions: 786-0, 48 h
A498 = test: Antiproliferative activity against human A498 cells assessed as reduction in cell viability after 48 hrs by SRB assay; conditions: A498, 48 h
HCC 2998 = test: Antiproliferative activity against human HCC2998 cells assessed as reduction in cell viability after 48 hrs by SRB assay; conditions: HCC 2998, 48 h
MDA-MB-435 = test: Antiproliferative activity against human MDA-MB-435 cells assessed as reduction in cell viability after 48 hrs by SRB assay; conditions: MDA-MB-435, 48 h
OVCAR-5 = test: Antiproliferative activity against human OVCAR5 cells assessed as reduction in cell viability after 48 hrs by SRB assay; conditions: OVCAR-5, 48 h
NCI-H522 = test: Antiproliferative activity against human NCI-H522 cells assessed as reduction in cell viability after 48 hrs by SRB assay; conditions: NCI-H522, 48 h, pooled result: one value given for 8 cell lines, strains, targets or settings
SF-539 = test: Antiproliferative activity against human SF539 cells assessed as reduction in cell viability after 48 hrs by SRB assay; conditions: SF-539, 48 h
COLO 205 = test: Antiproliferative activity against human COLO205 cells assessed as reduction in cell viability after 48 hrs by SRB assay; conditions: COLO 205, 48 h
RXF 393 = test: Antiproliferative activity against human RXF393 cells assessed as reduction in cell viability after 48 hrs by SRB assay; conditions: RXF 393, 48 h
MCF7 = test: Antiproliferative activity against human MCF7 cells assessed as reduction in cell viability after 48 hrs by SRB assay; conditions: MCF7, 48 h
HL-60(TB) = test: Antiproliferative activity against human HL-60(TB) cells assessed as reduction in cell viability after 48 hrs by SRB assay; conditions: HL-60, 48 h
RPMI-8226 = test: Antiproliferative activity against human RPMI8226 cells assessed as reduction in cell viability after 48 hrs by SRB assay; conditions: RPMI-8226, 48 h
SNB-75 = test: Antiproliferative activity against human SNB75 cells assessed as reduction in cell viability after 48 hrs by SRB assay; conditions: SNB-75, 48 h
MDA-MB-468 = test: Antiproliferative activity against human MDA-MB-468 cells assessed as reduction in cell viability after 48 hrs by SRB assay; conditions: MDA-MB-468, 48 h
HCT-15 = test: Antiproliferative activity against human HCT15 cells assessed as reduction in cell viability after 48 hrs by SRB assay; conditions: HCT-15, 48 h
HOP-92 = test: Antiproliferative activity against human HOP92 cells assessed as reduction in cell viability after 48 hrs by SRB assay; conditions: HOP-92, 48 h
KM12 = test: Antiproliferative activity against human KM12 cells assessed as reduction in cell viability after 48 hrs by SRB assay; conditions: KM12, 48 h
OVCAR-3 = test: Antiproliferative activity against human OVCAR3 cells assessed as reduction in cell viability after 48 hrs by SRB assay; conditions: OVCAR-3, 48 h
IGROV-1 = test: Antiproliferative activity against human IGROV1 cells assessed as reduction in cell viability after 48 hrs by SRB assay; conditions: IGROV-1, 48 h
MOLT-4 = test: Antiproliferative activity against human MOLT4 cells assessed as reduction in cell viability after 48 hrs by SRB assay; conditions: MOLT-4, 48 h
Hs-578T = test: Antiproliferative activity against human Hs 578T cells assessed as reduction in cell viability after 48 hrs by SRB assay
MDA-MB-231 = test: Antiproliferative activity against human MDA-MB-231 cells assessed as reduction in cell viability after 48 hrs by SRB assay; conditions: MDA-MB-231, 48 h
SF-295 = test: Antiproliferative activity against human SF295 cells assessed as reduction in cell viability after 48 hrs by SRB assay; conditions: SF-295, 48 h
DU-145 = test: Antiproliferative activity against human DU145 cells assessed as reduction in cell viability after 48 hrs by SRB assay; conditions: DU-145, 48 h
CAKI-1 = test: Antiproliferative activity against human CAKI-1 cells assessed as reduction in cell viability after 48 hrs by SRB assay; conditions: CAKI-1, 48 h
NCI/ADR-RES = test: Antiproliferative activity against human NCI/ADR-RES cells assessed as reduction in cell viability after 48 hrs by SRB assay
SR = test: Antiproliferative activity against human SR cells assessed as reduction in cell viability after 48 hrs by SRB assay
ACHN = test: Antiproliferative activity against human ACHN cells assessed as reduction in cell viability after 48 hrs by SRB assay
UACC-62 = test: Antiproliferative activity against human UACC62 cells assessed as reduction in cell viability after 48 hrs by SRB assay; conditions: UACC-62, 48 h, pooled result: one value given for 8 cell lines, strains, targets or settings
UO-31 = test: Antiproliferative activity against human UO31 cells assessed as reduction in cell viability after 48 hrs by SRB assay; conditions: UO-31, 48 h

How did the IC50 (SNB-19) turn out when `C/C=C(\C)C(=O)O[C@H]1C=CC(=O)O[C@H]1CC[C@H](O)[C@H](C)O` [6,7-DIHYDROPHOMOPSOLIDE B] was run?
Its IC50 is 17 µM.

And the IC50 (OVCAR-4)?
Its IC50 is 18 µM.

What about the IC50 (HT-29) of the same compound?
Its IC50 is 2 to 49 µM.

And the IC50 (SK-OV-3)?
The IC50 was 18 µM.

What about the IC50 (BT-549) of the same compound?
Its IC50 is 2 to 49 µM.

And the IC50 (U-251)?
The IC50 was 17 µM.

And the IC50 (CCRF-CEM)?
Its IC50 is 2 to 49 µM.

And the IC50 (T47D)?
The IC50 was 11 µM.

What about the IC50 (SF-268) of the same compound?
Its IC50 is 17 µM.

What about the IC50 (OVCAR-8) of the same compound?
The IC50 was 18 µM.

And the IC50 (SW-620)?
Its IC50 is 2 to 49 µM.

And the IC50 (SN12C)?
The IC50 was 2 to 49 µM.

And the IC50 (K562)?
Its IC50 is 2 to 49 µM.

What about the IC50 (HCT-116) of the same compound?
Its IC50 is 2 to 49 µM.

And the IC50 (TK-10)?
Its IC50 is 2 to 49 µM.

What about the IC50 (PC-3) of the same compound?
The IC50 was 18 µM.

And the IC50 (786-0)?
The IC50 was 2 to 49 µM.

And the IC50 (A498)?
Its IC50 is 2 to 49 µM.

And the IC50 (HCC 2998)?
The IC50 was 2 to 49 µM.

What about the IC50 (MDA-MB-435) of the same compound?
The IC50 was 11 µM.

What about the IC50 (OVCAR-5) of the same compound?
The IC50 was 18 µM.

What about the IC50 (NCI-H522) of the same compound?
The IC50 was 18 µM.

And the IC50 (SF-539)?
The IC50 was 17 µM.

What about the IC50 (COLO 205) of the same compound?
The IC50 was 2 to 49 µM.

And the IC50 (RXF 393)?
Its IC50 is 2 to 49 µM.

And the IC50 (MCF7)?
Its IC50 is 11 µM.

And the IC50 (HL-60(TB))?
Its IC50 is 2 to 49 µM.

And the IC50 (RPMI-8226)?
The IC50 was 2 to 49 µM.

What about the IC50 (SNB-75) of the same compound?
The IC50 was 17 µM.

And the IC50 (MDA-MB-468)?
Its IC50 is 2 to 49 µM.

What about the IC50 (HCT-15) of the same compound?
The IC50 was 2 to 49 µM.

And the IC50 (HOP-92)?
The IC50 was 2 to 49 µM.

And the IC50 (KM12)?
Its IC50 is 2 to 49 µM.

And the IC50 (OVCAR-3)?
The IC50 was 18 µM.

What about the IC50 (IGROV-1) of the same compound?
The IC50 was 18 µM.

And the IC50 (MOLT-4)?
The IC50 was 2 to 49 µM.

And the IC50 (Hs-578T)?
Its IC50 is 11 µM.

What about the IC50 (MDA-MB-231) of the same compound?
Its IC50 is 11 µM.

What about the IC50 (SF-295) of the same compound?
The IC50 was 17 µM.

And the IC50 (DU-145)?
Its IC50 is 18 µM.

What about the IC50 (CAKI-1) of the same compound?
The IC50 was 2 to 49 µM.

And the IC50 (NCI/ADR-RES)?
Its IC50 is 11 µM.

And the IC50 (SR)?
Its IC50 is 2 to 49 µM.

What about the IC50 (ACHN) of the same compound?
The IC50 was 2 to 49 µM.

And the IC50 (UACC-62)?
The IC50 was 2 to 49 µM.

And the IC50 (UO-31)?
Its IC50 is 2 to 49 µM.
